Measured values taken from PMC10235067, “Increased renal elimination of endogenous and synthetic pyrimidine nucleosides in concentrative nucleoside transporter 1 deficient mice” (Nature Communications, 2023).
One block for each molecule: values may come before it.

What was measured:
[1] = tested on: dihydropyrimidine dehydrogenase (DPD); settings: cited from earlier work

Experimental for CNT1: Linearity was established for analytes over the concentration ranges observed and the lower limit of quantification of the LC–MS/MS assay was approximately 0.1 ng/ml for each analyte (Fig. S2).
Standard solutions of all nucleotide targets were serially diluted to generate calibration solutions at concentrations of 0.0, 0.0001, 0.001, 0.01, 0.1, 1.0, and 10 µg/ml. Urine samples were prepared by adding 20 µL of urine solution to 80 µL of 50:50 H2O:MeOH containing internal standard, vortexing and centrifuging at 20,000 × g; then, 50 µL aliquots were placed into glass vials, dried in a SpeedVac and reconstituted in 5% MeOH with 0.1% formic acid for injection.
Samples were quantified using a heated electrospray ionization source (HESI) on a Thermo Scientific TQS Quantiva triple quadrupole mass spectrometer, and separation was achieved using a Thermo Scientific Ultimate 3000 HPLC equipped with an Agilent 120 SB-C18 reversed-phase column (2 × 100 mm, 2.7 µm particle size) maintained at 40 °C. […] For all experiments, the capillary voltage was set to 4.5 kV with a capillary temperature of 350 °C, a vaporizer temperature of 100 °C, a sheath gas flow of 12, an auxiliary gas flow of 13, and a 1.6 sweep gas. For selected reaction monitoring (SRM) mode, Q1 and Q3 were set to 0.7 full width at half maximum (FWHM) resolution, a cycle time of 0.8 s, and a CID gas pressure of 1.5 mTorr.

Structure (SMILES): O=c1[nH]cc(F)c(=O)[nH]1 [5’-fluorouracil]
share of elimination mediated by DPD through hepatic metabolism [1]: 80%

concentration in urine, Slc28a1+/+ vs Slc28a1-/- (CNT1; 12 h starvation): not significantly different
Structure (SMILES): Nc1ncnc2c1ncn2[C@@H]1O[C@H](CO)[C@@H](O)[C@H]1O [Adenosine]

fold increase of content in urine of Slc28a1-/- mice (CNT1; Slc28a1-/- vs Slc28a1+/+, urine collected over 12 h starvation, 8-week-old mice, n = 6): 44.8 fold
Structure (SMILES): Nc1ccn([C@H]2C[C@H](O)[C@@H](CO)O2)c(=O)n1 [Deoxycytidine]
